Reference: patent US7414060B2, “Pyridine-2-carboxyamide derivatives” (Hoffmann-La Roche Inc., priority 2005, dated 2008)

Target: T1, human mGlu 5a receptor (Homo sapiens, UniProt P41594)
T1 construct: expressed in transfected cells; host or cells: EBNA cells (transient transfection), cell membrane homogenates
Experiment: [3H]MPEP competition binding on membranes of EBNA cells transfected with human mGlu 5a receptor
Conditions: competition with [3H]MPEP (2 nM), 1 h at 4° C., human mGlu 5a receptor membranes; read-out: Ki (mGluR5)
Experimental: The pharmacological activity of the compounds was tested using the following method: For binding experiments, cDNA encoding human mGlu 5a receptor was transiently transfected into EBNA cells using a procedure described by Schlaeger and Christensen [Cytotechnology 15:1-13 (1998)]. Cell membrane homogenates were stored at −80° C. until the day of assay where upon they were thawed and resuspended and polytronized in 15 mM Tris-HCl, 120 mM NaCl, 100 mM KCl, 25 mM CaCl2, 25 mM MgCl2 binding buffer at pH 7.4 to a final assay concentration of 20 μg protein/well.
Saturation isotherms were determined by addition of twelve [^3H]MPEP concentrations (0.04-100 nM) to these membranes (in a total volume of 200 μl) for 1 h at 4° C. Competition experiments were performed with a fixed concentration of [^3H]MPEP (2 nM), and IC50 values of test compounds evaluated using 11 concentrations (0.3-10,000 nM). Incubations were performed for 1 h at 4° C.
At the end of the incubation, membranes were filtered onto unifilter (96-well white microplate with bonded GF/C filter preincubated 1 h in 0.1% PEI in wash buffer, Packard Bio-Science, Meriden, Conn.) with a Filtermate 96 harvester (Packard BioScience) and washed 3 times with cold 50 mM Tris-HCl, pH 7.4 buffer. Nonspecific binding was measured in the presence of 10 μM MPEP. The radioactivity on the filter was counted (3 min) on a Packard Top-count microplate scintillation counter with quenching correction after addition of 45 μl of microscint 40 (Canberra Packard S. A., Zürich, Switzerland) and shaking for 20 min.
The inhibition (antagonists) curves were fitted with a four parameter logistic equation giving IC50, and Hill coefficient using iterative non linear curve fitting software (Xcel fit).
For binding experiments the Ki values of the compounds tested are given. The Ki value is defined by the following formula: Ki=IC50/[1+L/Kd] in which the IC50 values are those concentrations of the compounds tested which cause 50% inhibition of the competing radioligand ([^3H]MPEP). L is the concentration of radioligand used in the binding experiment and the Kd value of the radioligand is empirically determined for each batch of membranes prepared.

T1 sequence (P41594 21-1180 isoform P41594-2 limits assumed): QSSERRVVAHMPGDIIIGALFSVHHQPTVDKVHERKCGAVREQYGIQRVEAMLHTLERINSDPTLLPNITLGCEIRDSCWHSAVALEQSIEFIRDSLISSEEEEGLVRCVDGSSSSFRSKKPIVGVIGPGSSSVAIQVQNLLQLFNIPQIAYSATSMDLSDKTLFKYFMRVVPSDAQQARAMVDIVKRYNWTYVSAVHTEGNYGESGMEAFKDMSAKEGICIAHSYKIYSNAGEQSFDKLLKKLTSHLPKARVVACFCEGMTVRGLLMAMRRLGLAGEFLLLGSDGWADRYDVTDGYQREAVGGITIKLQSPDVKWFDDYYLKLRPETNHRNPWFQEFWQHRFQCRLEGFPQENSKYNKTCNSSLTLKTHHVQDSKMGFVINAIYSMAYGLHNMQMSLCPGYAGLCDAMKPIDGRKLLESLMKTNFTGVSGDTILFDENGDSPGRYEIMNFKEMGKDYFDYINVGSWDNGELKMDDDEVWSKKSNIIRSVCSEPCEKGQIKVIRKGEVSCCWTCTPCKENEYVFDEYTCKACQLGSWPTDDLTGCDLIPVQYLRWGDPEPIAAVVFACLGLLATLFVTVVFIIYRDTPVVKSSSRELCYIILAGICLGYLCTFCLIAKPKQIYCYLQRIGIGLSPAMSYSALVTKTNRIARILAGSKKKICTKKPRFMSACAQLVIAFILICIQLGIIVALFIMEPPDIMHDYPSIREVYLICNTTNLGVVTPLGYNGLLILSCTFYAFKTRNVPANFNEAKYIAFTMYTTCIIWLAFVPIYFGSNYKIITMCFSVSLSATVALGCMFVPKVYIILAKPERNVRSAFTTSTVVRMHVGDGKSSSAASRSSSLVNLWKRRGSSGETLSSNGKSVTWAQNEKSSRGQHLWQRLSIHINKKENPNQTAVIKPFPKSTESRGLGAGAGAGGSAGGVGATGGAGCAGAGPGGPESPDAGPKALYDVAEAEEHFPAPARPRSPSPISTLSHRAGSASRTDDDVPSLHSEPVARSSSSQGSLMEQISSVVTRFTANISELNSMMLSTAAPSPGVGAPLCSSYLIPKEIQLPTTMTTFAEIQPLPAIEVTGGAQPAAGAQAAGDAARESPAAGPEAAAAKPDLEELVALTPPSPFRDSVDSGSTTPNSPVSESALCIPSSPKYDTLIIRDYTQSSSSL

| Compound | Ki |
| --- | --- |
| Cc1ccc(Nc2cccnc2)c(C(=O)Nc2ccn(C)n2)n1 [Example 16, 6-Methyl-3-(pyridin-3-ylamino)-pyridine-2-carboxylic acid (1-methyl-1H-pyrazol-3-yl)-amide] | 27 nM |
| Cc1ccc(Nc2cccc(F)c2)c(C(=O)Nc2ccc(F)c(C)n2)n1 [Example 54, 3-(3-Fluoro-phenylamino)-6-methyl-pyridine-2-carboxylic acid (5-fluoro-6-methyl-pyridin-2-yl)-amide] | 55 nM |
| Cc1ccc(Nc2ccnn2C)c(C(=O)Nc2csc(C)n2)n1 [Example 92, 6-Methyl-3-(2-methyl-2H-pyrazol-3-ylamino)-pyridine-2-carboxylic acid (2-methyl-thiazol-4-yl)-amide] | 10 nM |
| Cc1ccc(Nc2cccnc2)c(C(=O)Nc2ccnc(Cl)c2)n1 [Example 4, 6-Methyl-3-(pyridin-3-ylamino)-pyridine-2-carboxylic acid (2-chloro-pyridin-4-yl)-amide] | 42 nM |
| 6-Methyl-3-(1-methyl-1H-pyrazol-4-ylamino)-pyridine-2-carboxylic acid (5-fluoro-pyridin-2-yl)-amide [Example 96] | 57 nM |
| Cc1ccc(Nc2cncnc2)c(C(=O)Nc2cccc(Cl)c2)n1 [Example 2, 6-Methyl-3-(pyrimidin-5-ylamino)-pyridine-2-carboxylic acid (3-chloro-phenyl)-amide] | 30 nM |
| Cc1ccc(Nc2cccnc2)c(C(=O)Nc2ccc(F)cn2)n1 [Example 8, 6-Methyl-3-(pyridin-3-ylamino)-pyridine-2-carboxylic acid (5-fluoro-pyridin-2-yl)-amide] | 21 nM |
| Cc1ccc(Nc2cncnc2)c(C(=O)Nc2ncc(C)s2)n1 [Example 106, 6-Methyl-3-(pyrimidin-5-ylamino)-pyridine-2-carboxylic acid (5-methyl-thiazol-2-yl)-amide] | 56 nM |
| Cc1csc(NC(=O)c2nc(C)ccc2Nc2cccnc2)n1 [Example 14, 6-Methyl-3-(pyridin-3-ylamino)-pyridine-2-carboxylic acid (4-methyl-thiazol-2-yl)-amide] | 28 nM |
| Cc1ccc(Nc2cccc(C#N)c2)c(C(=O)Nc2nc(C(F)(F)F)cs2)n1 [Example 60, 3-(3-Cyano-phenylamino)-6-methyl-pyridine-2-carboxylic acid (4-trifluoromethyl-thiazol-2-yl)-amide] | 367 nM |
| Cc1cc(NC(=O)c2nc(C)ccc2Nc2cncc(C#N)c2)ccn1 [Example 22, 3-(5-Cyano-pyridin-3-ylamino)-6-methyl-pyridine-2-carboxylic acid (2-methyl-pyridin-4-yl)-amide] | 66 nM |
| Cc1ccc(Nc2cccnc2)c(C(=O)Nc2nc(C(F)(F)F)cs2)n1 [Example 18, 6-Methyl-3-(pyridin-3-ylamino)-pyridine-2-carboxylic acid (4-trifluoromethyl-thiazol-2-yl)-amide] | 78 nM |
| Cc1ccc(Nc2cncc(C(F)(F)F)c2)c(C(=O)Nc2ccn(C)n2)n1 [Example 51, 6-Methyl-3-(5-trifluoromethyl-pyridin-3-ylamino)-pyridine-2-carboxylic acid (1-methyl-1H-pyrazol-3-yl)-amide] | 82 nM |
| Cc1ccc(Nc2cc(C3CC3)nn2C)c(C(=O)Nc2ccc(F)c(C)n2)n1 [Example 103, 3-(5-Cyclopropyl-2-methyl-2H-pyrazol-3-ylamino)-6-methyl-pyridine-2-carboxylic acid (5-fluoro-6-methyl-pyridin-2-yl)-amide] | 14 nM |
